Values of other authors, collected in US9045800B2, “Methods and compositions for identifying, classifying and monitoring subject having Bcl-2 family inhibitor-resistant tumors and cancers” (AbbVie Inc., priority 2009, dated 2015).

Experiments:
[1] = test system: solid tumors; conditions: literature statement, no dose or model printed
[2] = test system: human cancer cell lines (SCLC and lymphoma cell lines)

CN(C)CC[C@H](CSc1ccccc1)Nc1ccc(S(=O)(=O)NC(=O)c2ccc(N3CCN(Cc4ccccc4-c4ccc(Cl)cc4)CC3)cc2)cc1[N+](=O)[O-] [ABT-737, N-(4-(4-((4′-chloro(1,1′-biphenyl)-2-yl)methyl)piperazin-1-yl)benzoyl)-4-(((1R)-3-(dimethylamino)-1-((phenylsulfanyl)methyl)propyl)amino)-3-nitrobenzenesulfonamide]
effect on solid tumors [1]: induce regression of solid tumors | potency against a diverse panel of human cancer cell lines [2]: selective potency against SCLC and lymphoma cell lines
